Data: ChEMBL document CHEMBL4680259, “Discovery of bazedoxifene analogues targeting glycoprotein 130” (Eur J Med Chem, 2020)
pIC50, pKd: −log10 of the molar value. Active and inactive are the calls of the source. No cut-off for these calls is given here.

How the values were obtained:
A549 [1] = test: Induction of apoptosis in human A549 cells assessed as necrotic cells at 9 uM incubated for 24 hrs by annexin V-FITC and propidium iodide staining based flow cytometry analysis (reference value: 0.4 %); format: functional
A549 [2] = test: Induction of apoptosis in human A549 cells assessed as viable cells at 9 uM incubated for 24 hrs by annexin V-FITC and propidium iodide staining based flow cytometry analysis (reference value: 97.7 %); format: functional; conditions: read-out: Activity
[3] = target: T1, Interleukin-6 receptor subunit beta (Homo sapiens, UniProt P40189); test: Binding affinity to immobilized GP130 (unknown origin) by SPR analysis
T1 sequence (P40189 whole entry): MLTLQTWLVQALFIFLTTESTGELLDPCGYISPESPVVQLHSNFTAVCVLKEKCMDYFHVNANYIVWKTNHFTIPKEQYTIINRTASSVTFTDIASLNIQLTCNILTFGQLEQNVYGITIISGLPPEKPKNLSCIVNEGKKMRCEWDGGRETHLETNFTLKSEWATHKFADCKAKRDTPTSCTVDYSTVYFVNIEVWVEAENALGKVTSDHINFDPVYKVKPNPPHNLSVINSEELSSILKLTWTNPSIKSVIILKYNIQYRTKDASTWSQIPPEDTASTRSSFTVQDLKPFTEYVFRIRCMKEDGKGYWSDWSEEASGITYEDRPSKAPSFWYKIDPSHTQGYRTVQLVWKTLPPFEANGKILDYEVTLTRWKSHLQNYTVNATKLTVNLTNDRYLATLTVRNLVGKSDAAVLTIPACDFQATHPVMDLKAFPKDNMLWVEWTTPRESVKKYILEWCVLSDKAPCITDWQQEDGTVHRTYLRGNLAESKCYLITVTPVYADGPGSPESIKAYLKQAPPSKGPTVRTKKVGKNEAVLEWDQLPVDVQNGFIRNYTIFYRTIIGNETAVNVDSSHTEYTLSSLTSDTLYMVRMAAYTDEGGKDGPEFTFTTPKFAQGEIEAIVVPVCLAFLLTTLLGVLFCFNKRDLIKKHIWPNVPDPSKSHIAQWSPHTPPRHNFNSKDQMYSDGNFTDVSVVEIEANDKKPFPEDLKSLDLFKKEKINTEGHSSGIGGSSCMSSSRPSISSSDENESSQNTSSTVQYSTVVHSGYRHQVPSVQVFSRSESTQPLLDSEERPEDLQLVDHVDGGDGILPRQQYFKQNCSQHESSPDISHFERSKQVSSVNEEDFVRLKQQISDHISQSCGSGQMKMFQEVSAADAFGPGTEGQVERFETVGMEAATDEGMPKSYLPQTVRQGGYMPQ

[4] = target: T2, Interleukin-6 receptor subunit beta (Homo sapiens) (UniProt P40189); test: Inhibition of GP130 in human A549 cells assessed as reduction in survivin protein expression after 24 hrs by Western blot analysis; format: cell-based; conditions: dose 3-9 µM
T2 sequence (whole entry): T1 sequence (P40189 whole entry)

A549 [5] = test: Induction of apoptosis in human A549 cells assessed as late apoptotic cells at 3 uM incubated for 24 hrs by annexin V-FITC and propidium iodide staining based flow cytometry analysis (reference value: 1.4 %); format: functional
A549 [6] = test: Potency index, ratio of bazedoxifene IC50 to test compound IC50 for antiproliferative activity against human A549 cells after 24 hrs by MTT assay; format: functional
[7] = Clearance in rat at 0.5 mg/kg, iv; format: ADME, organism-based; conditions: in vivo
[8] = Volume of distribution in rat at 5 mg/kg, ig; format: ADME, organism-based; conditions: in vivo, po
A549 [9] = test: Induction of apoptosis in human A549 cells assessed as increase in cleaved caspase-7 level at 3 to 9 uM incubated for 24 hrs by Western blot analysis; format: functional, cell-based; conditions: dose 3-9 µM
[10] = Clearance in rat at 5 mg/kg, ig; format: ADME, organism-based; conditions: in vivo, po
[11] = target: T2, Interleukin-6 receptor subunit beta (Homo sapiens); test: Inhibition of GP130 in human A549 cells assessed as reduction in bcl2 protein expression after 24 hrs by Western blot analysis; format: cell-based; conditions: dose 3-9 µM
A549 [12] = test: Induction of apoptosis in human A549 cells assessed as early apoptotic cells at 9 uM incubated for 24 hrs by annexin V-FITC and propidium iodide staining based flow cytometry analysis (reference value: 0.5 %); format: functional
[13] = Volume of distribution in rat at 0.5 mg/kg, iv; format: ADME, organism-based; conditions: in vivo
[14] = target: T2, Interleukin-6 receptor subunit beta (Homo sapiens); test: Inhibition of GP130 in human A549 cells assessed as decrease in JAK2 phosphorylation at 3 to 9 uM incubated for 24 hrs by western blot analysis; format: cell-based; conditions: dose 3-9 µM
A549 [15] = test: Antitumor activity against human A549 cells xenografted in nude mouse assessed as decrease in tumor weight at 10 mg/kg, ip administered daily for 21 days and measured every 2 to 3 days; format: functional; conditions: 504 h, time 21 day
[16] = target: T2, Interleukin-6 receptor subunit beta (Homo sapiens); test: Binding affinity to GP130 in human A549 cell lysates assessed as decrease in pronase mediated protein degradation by measuring increase in abundance of GP130 band at 100 to 1000 uM preincubated for 1 hr followed by pronase addition for 30 mins by DARTS assay; format: subcellular; conditions: dose 100-1000 µM, time 90.0 min
Mus musculus = test: Inhibition of phosphorylated STAT3 levels in tumor tissue of nude mouse xenografted with human A549 cells at 10 to 20 mg/kg, ip administered daily for 21 days by western blot analysis; format: functional, organism-based; conditions: dose 10-20 mg/kg, time 21.0 day
A549 [17] = test: Induction of apoptosis in human A549 cells assessed as viable cells at 3 uM incubated for 24 hrs by annexin V-FITC and propidium iodide staining based flow cytometry analysis (reference value: 97.7 %); format: functional; conditions: read-out: Activity
[18] = Acute toxicity in ICR mouse assessed as abnormal behaviour at 120 mg/kg measured after 2 weeks; format: organism-based; conditions: in vivo, 336 h
[19] = Mean residence time in rat at 5 mg/kg, ig; format: ADME, organism-based; conditions: in vivo, po
A549 [20] = test: Inhibition of colony formation in human A549 cells incubated for 24 hrs by crystal violet staining based assay; format: functional, cell-based; conditions: dose 2-10 µM
A549 [21] = test: Induction of ROS generation in human A549 cells assessed as fold increase in ROS level at 6 uM after 24 hrs by DCFH-DA staining based flow cytometric analysis relative to control; format: functional
[22] = Half life in rat at 0.5 mg/kg, iv; format: ADME, organism-based; conditions: in vivo
A549 [23] = test: Induction of apoptosis in human A549 cells assessed as increase in cleaved caspase-3 level at 3 to 9 uM incubated for 24 hrs by Western blot analysis; format: functional, cell-based; conditions: dose 3-9 µM
[24] = AUC (0 to infinity) in rat at 0.5 mg/kg, iv; format: ADME, organism-based; parameters: route intravenous, time infinity, dose 0.5 mg/kg; conditions: in vivo
A549 [25] = test: Antiproliferative activity against human A549 cells assessed as cell growth inhibition measured after 24 hrs by MTT assay; format: functional, cell-based; conditions: A549, 24 h
[26] = target: T2, Interleukin-6 receptor subunit beta (Homo sapiens); test: Inhibition of GP130 in human A549 cells assessed as decrease in IL6-induced STAT3 phosphorylation at Y705 residue at 9 uM incubated for 24 hrs by western blot analysis; format: cell-based
[27] = Bioavilability in rat at 5 mg/kg, ig; format: ADME, organism-based; conditions: in vivo, po
A549 [28] = test: Antitumor activity against human A549 cells xenografted in nude mouse assessed as decrease in tumor weight at 20 mg/kg, ip administered daily for 21 days and measured every 2 to 3 days; format: functional; conditions: 504 h, time 21 day
[29] = AUC (0 to t) in rat at 5 mg/kg, ig; format: ADME, organism-based; parameters: dose 5 mg/kg; conditions: in vivo, po

Compound `NC(=O)N1N=C(c2ccc(C(F)(F)F)cc2)CC1c1cn(Cc2ccc(OCCN3CCCCCC3)cc2)c2ccc(Br)cc12` (stereo not given) has an Activity (A549 [1]) of 2.6%, a viability at 9 µM (A549 [2]) of 60.6% and a pKd [3] of 5.42. For the same compound, the inhibition [4] was “Dose-dependent effect”, the Activity (A549 [5]) was 2.5% and the “Ratio IC50” value (A549 [6]) was 5.5. For the same compound, the clearance [7] was 14.5 mL/min/kg, the Vd [8] was 12.6 L/kg and the Activity (A549 [9]) was “Active”. The CL [10] was 14.8 mL/min/kg, the inhibition [11] was “Dose-dependent effect” and the Activity (A549 [12]) was 3.1%. For the same compound, the Vd [13] was 14.6 L/kg, the Activity [14] was “Active” and the inhibition in vivo at 10 mg/kg (A549 [15]) was 27.1%. The Activity [16] was “Active”, the inhibition (Mus musculus) was “Active” and the viability at 3 µM (A549 [17]) was 96.3%. For the same compound, the Activity [18] was “Non-Toxic”, the MRT [19] was 11.6 h and the inhibition (A549 [20]) was “Dose-dependent effect”. The “fold change (FC)” value (A549 [21]) was 4.09, the half-life [22] was 11.8 h and the Activity (A549 [23]) was “Active”. For the same compound, the AUC(0-inf) [24] was 585 ng·h/mL, the pIC50 (A549 [25]) was 5.35 and the Activity [26] was “Active”. For the same compound, the bioavailability [27] was 5.6%, the inhibition in vivo at 20 mg/kg (A549 [28]) was 59% and the AUC(0-t) [29] was 304 ng·h/mL.
